# Measured values from patent US6573060B1, “Methods and compositions for targeting DNA metabolic processes using aminoglycoside derivatives” (University of Virginia Patent Foundation, priority 1997, dated 2003).
# “Also recorded” adds a separate entry of the source.
# Assays:
# [1] = target: T1, DNA-dependent ATPase A (Bos taurus, UniProt Q9TTA5); assay: Inhibition of ATP hydrolysis by DNA-dependent ATPase A (overexpressed 82 kDa ADAAD); format: biochemical, bovine; settings: for inhibition of DNA-dependent ATPase A activity (in words): in vitro
# T1 sequence (Q9TTA5 222-940): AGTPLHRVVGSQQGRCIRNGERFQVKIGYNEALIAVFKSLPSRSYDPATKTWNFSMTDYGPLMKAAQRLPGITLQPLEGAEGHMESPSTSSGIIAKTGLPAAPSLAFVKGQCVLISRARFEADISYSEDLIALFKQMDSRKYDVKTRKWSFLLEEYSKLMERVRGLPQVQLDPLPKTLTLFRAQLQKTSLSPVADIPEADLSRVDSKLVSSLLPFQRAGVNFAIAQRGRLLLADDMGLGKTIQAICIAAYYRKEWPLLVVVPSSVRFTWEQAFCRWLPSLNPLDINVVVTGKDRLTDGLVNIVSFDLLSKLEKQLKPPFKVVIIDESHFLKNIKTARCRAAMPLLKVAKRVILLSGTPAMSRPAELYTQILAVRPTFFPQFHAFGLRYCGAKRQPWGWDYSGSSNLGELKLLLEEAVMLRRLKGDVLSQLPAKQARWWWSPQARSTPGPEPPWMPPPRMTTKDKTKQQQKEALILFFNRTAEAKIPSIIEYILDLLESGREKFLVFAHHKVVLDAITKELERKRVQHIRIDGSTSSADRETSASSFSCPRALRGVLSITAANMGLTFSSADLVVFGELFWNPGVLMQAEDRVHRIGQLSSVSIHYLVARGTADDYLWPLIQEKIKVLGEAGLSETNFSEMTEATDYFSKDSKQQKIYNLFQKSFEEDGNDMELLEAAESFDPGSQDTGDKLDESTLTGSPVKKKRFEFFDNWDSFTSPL
# Procedure: Enzyme (0.2 units (one unit is the amount of enzyme required to hydrolyze 1 μmole of adenosine triphosphate per min)) was mixed with 50 mM Tris-SO4, pH 7.5, 1 mM MgCl2, 5 mM β-mercaptoethanol, 0.5 mg/mL bovine serum albumin, 2 mM phosphoenol pyruvate, 0.03 mg/mL pyruvate kinase, 10 nM of stem-loop DNA, and 2 mM adenosine triphosphate in a total volume of 100 μL. The reaction was typically incubated at 37° C. for 10-60 minutes. At the end of the designated time, 225 μL of 10% sodium dodecyl sulfate and 350 μL of water were added to stop the reaction. Color development requires the addition of two reagents: 180 μL of reagent A (prepared by mixing equal volumes of 60 to 70% perchloric acid and 5% ammonium molybdate in water) and 45 μL of reagent B (0.2 g 1:2:4 aminonaphthol sulfonic acid, 12.0 g sodium metabisulfite, and 2.4 g sodium sulfite dissolved in 100 mL of water) was added. The reaction was incubated at room temperature for 10 minutes and the absorbance was read at 720 nm. The color development was time-dependent and therefore samples must be read at exactly 10 minutes.
# Enzyme (0.2 units (one unit is the amount of enzyme required to hydrolyze 1 μmole of adenosine triphosphate per min)) was mixed with 25 mM Tris-acetate pH 7.5, 6 mM Mg(acetate)2, 60 mM KCl, 5 mM β-mercaptoethanol, 3 mM phosphoenol pyruvate, 10 units/mL pyruvate kinase, 10 units/mL lactate dehydrogenase 10 nM DNA, 2 mM adenosine triphosphate, and 0.1 mg/mL NADH in a final volume of 1 mL. The progress of the reaction at 37° C. was monitored at 340 nm using an HP8452 spectrophotometer.
# Enzyme (0.2 U) was mixed with 50 mM Tris-SO4, pH 7.5, 1 mM MgCl2, 5 mM β-mercaptoethanol, 0.5 mg/mL bovine serum albumin, 2 mM phosphoenol pyruvate, 0.03 mg/mL pyruvate kinase, 10 nM of stem-loop DNA, and 2 mM adenosine triphosphate in a total volume of 50 μL. Three (3) μCi of [^32P]-γ-adenosine triphosphate was added to the reaction and typical incubation was for 60 minutes 37° C. EDTA (25 mM) was added to stop the reaction. 10 μL of the reaction was spotted on a poly(ethylenimine)-cellulose plate. The plate was developed using 0.9M LiCl and 7M urea as solvent system. The plate was allowed to dry and autoradiographed either using X-OMAT film or a phosphorimager. […]
# [2] = system: Human PC3 (prostate cancer) cells; assay: Human PC3 subcutaneous tumors in nude, athymic mice, intratumoral injection; format: in vivo
# Procedure: Human PC3 (prostate cancer) cells were implanted subcutaneously in nude, athymic mice. Following tumor development to a size of approximately 200 cubic millimeters, tumors were injected directly with 50 μl of 1.3 mM phosphokanamycin every Monday, Wednesday, and Friday for two weeks.
# CRL: CD-lnu/nu Br mice (nude, athymic) were obtained from Charles River Animal Resources Facility. Human PC3 cells were grown in RPMI 1640 media containing 10% serum, 200 μl of this cell culture was diluted 1:1 with Matrigel (Collaborative Biomedical Products) such that the total number of cells after dilution were 2×10^6. The cells were then injected on the underside of the flank and the development of subcutaneous tumor size was monitored by measurement with Vernier calipers.
# Therapy with the drugs was started when the tumor size reached 200 mm^3. The drugs were solubilized in PBS (0.35 g NaH2PO4, 1.06 g Na2HPO and 8.5 g in a total volume of 1 L, pH 7.2), pH was adjusted to 7.2 using phosphoric acid and filter sterilized before injection. 50 μl of the drug (1.3 mM phosphokanamycin) was administered by direct injection into the tumor every Monday, Wednesday, and Friday for two weeks. The tumor size was monitored by measurement with Vernier calipers. The mice were euthanized when the tumor size exceeded 1000 mm^3 or when the weight of the mice decreased by more than 15% of their starting weight. The tumor size was calculated using the following formula:
# volume=[length×(width)^2]/2
smiles,measurement,setting,value
"NC[C@H]1O[C@H](O[C@H]2[C@H](O)[C@@H](O[C@H]3O[C@H](CO)[C@@H](O)[C@H](N)[C@H]3O)[C@H](N)C[C@@H]2N)[C@H](O)[C@@H](OP(=O)(O)O)[C@@H]1O [phosphokanamycin, 3′-phosphokanamycin]",Ki,"[1]; Table 4, determined in the presence of effector",580 nM
same,Ki,"[1]; kinetic analysis of ATP hydrolysis, competitive with respect to DNA",~200 nM
same,inhibition of DNA-dependent ATPase A activity (in words),[1],inhibitor
same,inhibition of DNA-dependent ATPase A activity (in words),[1]; listed as 3′-phosphokanamycin,potent competitive (with respect to DNA) inhibitor
same,decrease in amount of drug required for a given level of inhibition / potency relative to the parent aminoglycoside,[1]; phosphorylated derivative vs parent,1000 fold
same,effect on tumors (in words),[2]; 50 μl of 1.3 mM into the tumor Mon/Wed/Fri for two weeks,tumor cells were killed; also recorded: Tumors regress in size and ultimately disappear
same,remote lesions (metastasis) after treatment,[2]; metastasis had occurred before treatment,no remote lesions are detected
same,longevity of treated mice,[2]; relative to untreated controls,significant longevity relative to the untreated controls
same,toxicity,[2]; treatments lasting as long as 8 weeks,no detectable toxicity
